Reference: patent US20120115151A1, “METHOD FOR TESTING A SUBJECT THOUGHT TO BE PREDISPOSED TO HAVING METASTATIC CANCER USING DELTA133P53BETA” (CENTRE NATIONAL DE LA RECHERCHE SCIENTIFIQUE (CNRS), priority 2009, published 2012)

Test system: hct116 cells transfected with GFP-tagged Δ133p53 isoforms
Assay: Matrigel Transwell invasion assay in the presence of the ROCK inhibitor
Type: cell-based
Conditions: Y27632 at 10 μM; cells expressing Δ133p53 isoforms invading through Matrigel
Procedure: Y27632 was purchased from calbiochem and was used at 10 μM in all experiments. The quantification of cell invasion was carried out in Transwell cell culture chambers containing fluorescence-blocking polycarbonate porous membrane inserts (Fluoroblock; #351152; BD Biosciences; pore size 8 μm). 100 μl of 2 mg/mL Matrigel with reduced growth factors (a commercially prepared reconstituted BM from Englebreth-Holm-Swarm tumours, #354230; BD Biosciences) were prepared in a Transwell. Cells were transfected and treated or not with Y27632 as monolayers before trypsinization and plating (10·10^4) in 2% FCS containing media on top of a thick layer (around 500 μm) of Matrigel contained within the upper chamber of a Transwell. Controls were left untreated. The upper and lower chambers were then filled with respectively 2% FCS containing media and media with 10% FCS, thus establishing a soluble gradient of chemo-attractant that permits cell invasion throughout the Matrigel. Cells were allowed to invade at 37° C., 5% CO2 through the gel before fixing for 15 min in 3.7% formaldehyde. Cells that had invaded through the Matrigel were detected on the lower side of the filter by GFP fluorescence and counted for cell number. All the surface of the filter is counted and each assay was performed twice in triplicate for each condition. […]

C[C@@H](N)[C@H]1CC[C@H](C(=O)Nc2ccncc2)CC1 [Y27632]
invasiveness of transfected cells: highly reduced
